This is an account of results in PubChem BioAssay (NCI).

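How tested: cells in 96-well plates exposed to compound for 48 hours at five concentrations. GI50 = concentration required for 50% inhibition of growth. TGI: concentration producing complete growth inhibition.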

Experiment in all cases: NCI-60 cell line screen, 48 h
In assay [1] the test system is 786-0 renal.
For assay [2], the system named is HOP-62 NSCLC.
For assay [3], the system named is NCI-H460 lung.
For assay [4], the system named is PC-3 prostate.
Assay [5] has as its system RXF 393 renal.
The test system of assay [6] is SK-MEL-28 melanoma.
The test system of assay [7] is SK-OV-3 ovarian.
Assay [8] has as its system SN12C renal.
The subject of assay [9] is U251 CNS.
The subject of assay [10] is UO-31 renal.

In the case of `CO/N=C(\COc1ccc2c(c1)oc(=O)c1cc(OC)ccc12)c1ccc(F)cc1`, the GI50 was 14.3 µM in [1]; 16.4 µM in assay [2]; 23.8 µM in [3]; 20.9 µM in assay [4]; 35.1 µM in assay [5]; 87.3 µM in assay [6]. For the same compound, the GI50 in assay [7] is 48.5 µM; in assay [8], 27.2 µM; in assay [9], 20.3 µM; in assay [10], 12.7 µM. The TGI is 28.7 µM in [1]; 34.1 µM in assay [2]; over 100 µM in [3]; 66.5 µM in [4]; over 100 µM in assay [5]; over 100 µM in assay [6]. The TGI in assay [7] was over 100 µM; in [8] it was over 100 µM; in assay [9] it was 40.4 µM; in assay [10], 32.3 µM.

Take `CNc1cccnc1/C=N/NC(N)=S`: the TGI in assay [1] was over 10 µM; in assay [2], over 8.19 µM; in assay [3], over 10 µM; in assay [4], over 10 µM; in assay [5] it was over 10 µM; in assay [6], over 10 µM. In addition, the TGI was over 10 µM in assay [7], over 8.25 µM in assay [8], over 10 µM in assay [9] and 4.5 µM in assay [10].

On to `COc1cc2c3c(n(CCCCNC(=O)OCC4c5ccccc5-c5ccccc54)c(=O)c2cc1OC)-c1cc2c(cc1C3=O)OCO2`, for which the GI50 was 4.67 µM in assay [1]; 5.62 µM in [2]; 2.56 µM in [3]; 13.7 µM in [4]; 15.9 µM in assay [5]; over 100 µM in assay [6]. The GI50 in assay [7] was over 100 µM; in assay [8] it was 10.7 µM; in assay [9] it was 11.2 µM; in [10] it was 49.3 µM. Further, the TGI was 28.1 µM in assay [1]; 34 µM in assay [2]; 54.2 µM in [3]; 55.6 µM in [4]; 58.6 µM in [5]; over 100 µM in [6]. Also, the TGI is over 100 µM in assay [7], 93 µM in [8], 65.3 µM in assay [9] and over 100 µM in [10].

Regarding `O=C1/C(=C/c2ccc([N+](=O)[O-])o2)Oc2ccccc21`, the GI50 in assay [1] was 2.06 µM; in [2] it was 2.22 µM; in assay [3], 1.91 µM; in [4], 2.25 µM; in assay [5], 1.61 µM; in assay [6] it was 1.65 µM. Also, the GI50 in assay [7] is 6.4 µM; in assay [8] it was 2.17 µM; in assay [9] it was 1.96 µM; in assay [10], 1.07 µM. The TGI was determined as 4.12 µM in assay [1]; 6.42 µM in assay [2]; 4.09 µM in [3]; 7.12 µM in assay [4]; 3.24 µM in [5]; 3.2 µM in [6]. For the same compound, the TGI in [7] came out at 18.2 µM; in assay [8], 5.53 µM; in assay [9], 4.66 µM; in assay [10] it was 2.86 µM.

`COc1cc(-n2cc(-c3ccc(F)cc3)[nH]c2=S)cc(OC)c1OC`: the GI50 in assay [1] was 63.6 µM; in assay [2], over 100 µM; in assay [3] it was over 100 µM; in [4], 80.1 µM; in assay [5], 71.4 µM; in assay [6] it was over 100 µM. The GI50 in assay [7] was 38.2 µM; in assay [8] it was over 100 µM; in assay [9], over 100 µM; in [10] it was over 100 µM. The TGI in [1], in [2], in assay [3], in assay [4], in assay [5] and in [6] was over 100 µM each time. Besides, the TGI in [7], in [8], in [9] and in assay [10] was over 100 µM in each case.

As to `O=c1[nH]ccc2nc(-c3ccc(CN4CCC(c5nc(-c6ccccn6)n[nH]5)CC4)cc3)c(-c3ccccc3)cc12`, the GI50 in [1] was 0.737 µM; in assay [2] it was 27.8 µM; in assay [3] it was 1.15 µM; in [4] it was 0.153 µM; in assay [5], 0.272 µM; in assay [6], 16.8 µM. Besides, the GI50 in assay [7] is 0.124 µM; in assay [8], 32.1 µM; in [9], 13.2 µM; in assay [10], 0.975 µM. In addition, the TGI is 18.1 µM in assay [1]; over 100 µM in [2]; over 100 µM in assay [3]; over 100 µM in assay [4]; 4.73 µM in assay [5]; over 66.1 µM in assay [6]. Moreover, the TGI in [7] is over 100 µM; in assay [8], over 100 µM; in assay [9], over 66.6 µM; in assay [10], over 100 µM.

For the compound `N#CCC12CC=CCC1=C(O)C(=O)c1ccc(O)cc12` (stereo not given), the TGI in assay [1], in assay [2], in [3], in [4], in [5] and in assay [6] was over 100 µM each time. The TGI in assay [7], in assay [8], in assay [9] and in assay [10] was over 100 µM in each case.

With `O=C1CSC(=S)N1Cc1cccnc1`, the GI50 is 3.67 µM in assay [1]; 47 µM in assay [2]; 18.4 µM in [3]; 16.2 µM in [4]; 6.11 µM in assay [5]; 11.4 µM in assay [6]. Also, the GI50 in [7] was 35.8 µM; in [8] it was 14.5 µM; in [9], 23.5 µM; in assay [10], 4.61 µM. Besides, the TGI in assay [1] is 11.2 µM; in assay [2], over 100 µM; in assay [3] it was 48.7 µM; in assay [4], over 100 µM; in assay [5], 24.2 µM; in assay [6], 27.3 µM. Moreover, the TGI was over 100 µM in [7], 29.2 µM in [8], 61.5 µM in assay [9] and 17.6 µM in [10].
